In patent publication US20250276968A1, “8- AND 6-SUBSTITUTED PYRIDOPYRIMIDINE DERIVATIVES AS KRAS INHIBITORS” (Beta Pharma, Inc., priority 2022, published 2025):

Assay: Pharmacokinetics in male CD-1 mice (IV and PO dosing)
Type: in vivo
Details: mean plasma
Protocol: The pharmacokinetic profile of the Example 1 (compound 1a) was determined in male CD-1 mice by WuXi AppTec Co., Ltd., 1318 Wuzhong Avenue, Wuzhong District, Suzhou, China, 215104.

Compound `C=C(F)C(=O)N1CCN(c2nc(OC[C@@H]3CCCN3C)nc3cc(-c4cccc5cccc(Cl)c45)cnc23)C[C@@H]1CC#N` [Example 1, 2-((S)-4-(7-(8-Chloronaphthalen-1-yl)-2-(((S)-1-methylpyrrolidin-2-yl)methoxy)pyrido[3,2-d]pyrimidin-4-yl)-1-(2-fluoroacryloyl)piperazin-2-yl)acetonitrile] has an AUCExtra (3 mg/kg IV) of 9.23%, an AUMCExtra (3 mg/kg IV) of 35.2% and a Tlast (3 mg/kg IV) of 8.00 h. It also gave an AUCExtra (30 mg/kg PO) of 17.1%, an AUMCExtra (30 mg/kg PO) of 43.8% and a Tlast (30 mg/kg PO) of 8.00 h.
